This is an account of results in paper PMC10048907, “Antennal Transcriptome Analysis of Olfactory Genes and Characterization of Odorant Binding Proteins in Odontothrips loti (Thysanoptera: Thripidae)” (International Journal of Molecular Sciences, 2023).

Where two headings read alike, the source gives them in different places. Bounds are passed on as bounds.

The target of assay [1] is recombinant O.lotOBP6. Kind of assay: Fluorescence competitive binding assay with 1-NPN probe. The note with it: for IC50: 1× PBS pH 7.2~7.4, room temperature, triplicates, read-out: IC50 (concentration of ligand halving the initial fluorescence value of 1-NPN). Also on record: species or system Odontothrips loti. Here is the method:
Fluorescence was measured on a F-7000 fluorescence spectrophotometer (Hitachi, Tokyo, Japan) at room temperature with a 1 cm light path quartz cuvette and 10 nm slits for both excitation and emission. The fluorescent probe N-phenyl-1-naphthylamine (1-NPN) was excited at 337 nm, and emission was recorded between 370 and 520 nm. The pure protein was dissolved with 1× PBS (pH 7.2~7.4) at a final concentration of 2 μM. The ligands and 1-NPN were dissolved in methanol at the concentration of 1 mM.
To measure the affinity of 1-NPN to O.lotOBP6, a 2 μM solution of protein in 2 mL 1× PBS was titrated with 1-NPN to final concentrations of 0.25~8 μM. The affinity of ligands was measured by the titration of the O.lotOBP6/1-NPN complex at the concentration of 2 μM by adding ligand to final concentrations of 0.25~10 μM. The dissociation constants of the competitors were calculated by the equation Ki = IC50/(1 + [1-NPN]/K1-NPN), where IC50 is the concentration of ligands halving the initial fluorescence value of 1-NPN, [1-NPN] is the free concentration of 1-NPN, and K1-NPN is the dissociation constant of the complex O.lotOBP6/1-NPN. Experiments were performed in triplicates. GraphPad Prism 7.0 was used to perform nonlinear regression analysis on the standard curve and the dissociation curve.

Assay [2] concerns adult O. loti. The assay is described as follows: Y-tube olfactometer choice tests with volatiles. The class given is in vivo, Odontothrips loti. The following applies: volatile 10 ng/μL in paraffin oil vs paraffin oil control, chi-square test; for Response of male adult O. loti in Y-tube olfactometer: male adults. Here is the method:
In the behavioral assays, the female and male adults were reared together, while 3–5 days old female and male adults were collected separately by reproductive morphology. Eleven ligands with high binding affinities to O.lotOBP6/1-NPN complex based on fluorescence binding assays were used in the test. The responses of female and male O. loti to 11 volatiles (Table 3) were measured derived from M. sativa (Liu Y-Q, unpublished data) or semiochemicals previously used in Y-tube olfactometer bioassays. The glass Y-tube consisted of a stem and two arms (10 cm long, 1 cm in diameter) separated from each other at an angle of 75°. Air drawn into the olfactometer was first purified by active charcoal, moistened by distilled water in a gas-washing bottle, and split into two streams, with a flow rate of 50 mL min^−1. Two glass flasks (100 mL) provided test and control odor sources. Connections between the components of the olfactometer apparatus were made with Teflon tubes. Olfactometer experiments were carried out in a dark room at 26 ± 1 °C. Light was provided by a LED light (28 W), which was placed at the Y end of the olfactometer. The volatile sample of 10 ng/μL was dissolved in paraffin oil as the test odor source, with the control sample being paraffin oil. A single O. loti was introduced to the base tube of the Y-tube and observed for 5 min. When the test thrip entered a half-length of either arm of the Y-tube and stayed for 1 min, the choice was recorded. […] After five test thrips were tested, the odor sources were swapped to avoid directional effects in the apparatus. To avoid the effects of travelling residual odors of test thrips, ten test thrips tests were followed by a new Y-tube, which was cleaned with 75% ethanol and oven dried at 60 °C for 30 min. Sixty biological replicates were carried out for each female or male treatment. Results were analyzed by Chi-square test using IBM SPSS 22.

For assay [3], the system named is Megalurothrips usitatus adults. The arrangement: method as in PMID 32246573. The following applies: field trials, cited from earlier work.
Setting [4] is: O.lotOBP6/1-NPN complex 2 μM, calculated from IC50, read-out: Ki (dissociation constant, Ki = IC50/(1 + [1-NPN]/K1-NPN)).
Where [5] appears, read: competitive fluorescence binding curves, read-out: Ki (high binding affinities with the O.lotOBP6/1-NPN complex).

Consider `C=C(C)[C@H]1CC=C(C)CC1` [D-Limonene], for which the IC50 in assay [1] (O.lotOBP6/1-NPN complex 2 μM) is more than 50000 nM.
Turning to `CCCCCCCCC=O` [Nonanal], the IC50 in assay [1] (O.lotOBP6/1-NPN complex 2 μM) was 1400 ± 90 nM. Further, the Ki in assay [1] (setting [4]) was 580 ± 40 nM; in assay [1] (setting [5]) it was less than 10000 nM.
For `CCOC(=O)c1cccnc1` [Ethyl nicotinate], in assay [1] (O.lotOBP6/1-NPN complex 2 μM), the IC50 was more than 50000 nM.
With `CC12CCC(CC1)C(C)(C)O2` [Eucalyptol], in assay [1] (O.lotOBP6/1-NPN complex 2 μM), the IC50 stood at 2060 ± 50 nM. Further, the values for the Ki in assay [1] (setting [4]) and in assay [1] (setting [5]) were 850 ± 20 nM and less than 10000 nM, respectively.
The like results for `COc1ccc(C=O)cc1` [p-Anisaldehyde] were, in that order, 4590 ± 640 nM, 1890 ± 260 nM and less than 10000 nM.
Take `C=CCCC=O` [4-Pentenal]: in assay [1] (O.lotOBP6/1-NPN complex 2 μM), the IC50 is more than 50000 nM.
Turning to `O=Cc1ccccc1` [Benzaldehyde], in assay [1] (O.lotOBP6/1-NPN complex 2 μM), the IC50 was 1620 ± 120 nM. Moreover, the values for the Ki in assay [1] (setting [4]) and in assay [1] (setting [5]) were 670 ± 50 nM and less than 10000 nM, respectively.
As to `c1ccc(Nc2cccc3ccccc23)cc1` [1-NPN, N-phenyl-1-naphthylamine, reference compound], in assay [1] (2 μM protein titrated with 1-NPN 0.25~8 μM, Scatchard equation, read-out: Dissociation constant of recombinant O.lotOBP6 protein to 1-NPN), the Kd was found to be 1050 nM.
Regarding `O=Cc1ccccc1O` [Salicylaldehyde], the IC50 in assay [1] (O.lotOBP6/1-NPN complex 2 μM) turned out to be 1100 ± 10 nM. Moreover, the Ki is 450 nM in assay [1] (setting [4]) and less than 10000 nM in assay [1] (setting [5]).
For the compound `CC1=CCC2CC1C2(C)C` (stereo not drawn) [α-Pinene], the IC50 in assay [1] (O.lotOBP6/1-NPN complex 2 μM) was more than 50000 nM.
Turning to `Cc1cccc(C)c1` [m-Xylene], in assay [1] (O.lotOBP6/1-NPN complex 2 μM), the IC50 was 8410 ± 310 nM. Besides, the Ki is 3470 ± 130 nM in assay [1] (setting [4]) and less than 10000 nM in assay [1] (setting [5]).
Turning to `CC/C=C\CCOC(=O)CCC` [(Z)-3-Hexenyl butyrate], the IC50 in assay [1] (O.lotOBP6/1-NPN complex 2 μM) came to 5580 ± 380 nM. Also, the Ki in assay [1] (setting [4]) is 2300 ± 160 nM; in assay [1] (setting [5]), less than 10000 nM. In addition, in assay [2], the “Response of male adult O. loti in Y-tube olfactometer” value is given as “significantly attracted”.
On to `CC(=O)OC/C=C(\C)CC/C=C(\C)CCC=C(C)C` [(2E,6E)-farnesyl acetate], for which, in assay [3] (dose of 60 μg), the “Duration of attraction effect” value is “at least 6 days”. For the same compound, the “Attractiveness to adults compared to the control” value in assay [3] is listed as “significantly more attractive”.
With `CCCCC(CC)CO` (centres unmarked) [2-Ethyl-1-hexanol], in assay [1] (O.lotOBP6/1-NPN complex 2 μM), the IC50 stood at 3800 ± 310 nM. Further, the Ki was 1570 ± 130 nM in assay [1] (setting [4]) and less than 10000 nM in assay [1] (setting [5]).
The matching figures for `CCCCCCCCCCCCC` [Tridecane]: 2600 ± 440 nM, 1070 ± 180 nM and less than 10000 nM.
The matching figures for `C=CC(C)(O)CCC=C(C)C` (centres unmarked) [Linalool]: 6920 ± 240 nM, 2860 ± 100 nM and less than 10000 nM.
`C=C(C)C1CCC(C)C(=O)C1` (centres unmarked) [p-Menth-8-en-2-one]: the IC50 in assay [1] (O.lotOBP6/1-NPN complex 2 μM) amounted to 340 ± 30 nM. Also, the Ki in assay [1] (setting [4]) is 140 ± 10 nM; in assay [1] (setting [5]) it was less than 10000 nM. Further, in assay [2] (female adults), the “Response of female adult O. loti in Y-tube olfactometer” value was “significantly attracted”. Further, the “Response of male adult O. loti in Y-tube olfactometer” value in assay [2] was “significantly attracted”.
For `Cc1cc(C(C)(C)C)c(O)c(C(C)(C)C)c1` [Butylated hydroxytoluene], the IC50 in assay [1] (O.lotOBP6/1-NPN complex 2 μM) was more than 50000 nM.
